Counter-ions that a name gives are not always drawn.
How the values were obtained:
[1] = biological target: T1, JH2 domain of human Tyk2 (Homo sapiens, UniProt P29597); assay: JH2 biochemical assay (TR-FRET probe displacement); assay type: binding
T1 construct: 10×His-tagged TYK2 JH2 domain (amino acid 575-876)
Summary of the method: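 10×His-tagged human TYK2 JH2 (aa 575-876, 2 nM) incubated 60 min with 2 nM fluorescent probe, 0.1 nM Tb anti-His antibody and compound (10-point 3-fold series from […] top). TR-FRET 520/495 nm ratio, falling with probe displacement, normalized and fitted to a 4-parameter logistic for IC50.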

[2] = system: Tyk2 kinase activity on STAT4; assay: pSTAT4 cell assay (MSD, NK92 cells); assay type: cell-based; conditions: compounds 1 hr
Summary of the method: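 NK92, serum-starved; cpd 1 hr, 10-pt 4-fold from 10 μM; IL2 30 ng/mL 15 min; lyse; MSD with anti-STAT4 Abs; IC50 by 4-PL fit.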

[3] = TR-FRET probe displacement, JH2 domain of human Tyk2

T1 sequence (P29597 575-876): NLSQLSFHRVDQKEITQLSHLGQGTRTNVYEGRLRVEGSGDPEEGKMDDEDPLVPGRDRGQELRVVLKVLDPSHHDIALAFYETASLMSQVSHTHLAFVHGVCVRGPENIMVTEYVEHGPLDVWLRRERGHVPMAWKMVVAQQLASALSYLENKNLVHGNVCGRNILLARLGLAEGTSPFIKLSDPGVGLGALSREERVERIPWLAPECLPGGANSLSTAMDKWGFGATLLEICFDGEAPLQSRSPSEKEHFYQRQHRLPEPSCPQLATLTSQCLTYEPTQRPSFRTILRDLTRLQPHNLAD

| Compound | IC50 ([1]; JH2 biochemical assay) | IC50 ([2]; stimulated 15 minutes) | IC50 [1, 3] | IC50 ([2]; then stimulated 15 minutes) |
| --- | --- | --- | --- | --- |
| CC(=O)Nc1cc2c(cn1)C1(CC1)CN2c1cc(C)nc(CC2CC2)n1 [Example 62, N-(1′-(2-(cyclopropylmethyl)-6-methylpyrimidin-4-yl)-1′,2′-dihydrospiro[cyclopropane-1,3′-pyrrolo[3,2-c]pyridin]-6′-yl)acetamide] | ≤ 10 nM | 100 to 1000 nM |  |  |
| CC(=O)Nc1cc2c(cn1)C1(CC1)CN2c1cc(C)nc(C2CCN(S(C)(=O)=O)CC2)n1 [Example 122, N-(1′-(6-methyl-2-(1-(methylsulfonyl)piperidin-4-yl)pyrimidin-4-yl)-1′,2′-dihydrospiro[cyclopropane-1,3′-pyrrolo[3,2-c]pyridin]-6′-yl)acetamide] | 100 to 1000 nM | ≥ 1000 nM |  |  |
| CC(=O)Nc1cc2c(cn1)C1(CC1)CN2c1cc(C)cc(OC2COC2)n1 [Example 341, N-(1′-(4-methyl-6-(oxetan-3-yloxy)pyridin-2-yl)-1′,2′-dihydrospiro[cyclopropane-1,3′-pyrrolo[3,2-c]pyridin]-6′-yl)acetamide trifluoroacetate] | ≥ 1000 nM | ≥ 1000 nM |  |  |
| CCc1cc(N2CC3(CC3)c3cnc(NC(C)=O)cc32)nc(C2CCOC2)n1 (stereo not shown) [Example 321, N-(1′-(6-ethyl-2-(tetrahydrofuran-3-yl)pyrimidin-4-yl)-1′,2′-dihydrospiro[cyclopropane-1,3′-pyrrolo[3,2-c]pyridin]-6′-yl)acetamide trifluoroacetate] | ≤ 10 nM | 10 to 100 nM |  |  |
| CC(=O)Nc1cc2c(cn1)C1(CC1)CN2c1cc(C)cc(N2CCOCC2)n1 [Example 206, N-(1′-(4-methyl-6-morpholinopyridin-2-yl)-1′,2′-dihydrospiro[cyclopropane-1,3′-pyrrolo[3,2-c]pyridin]-6′-yl)acetamide] | 10 to 100 nM | 100 to 1000 nM |  |  |
| CC(=O)Nc1cc2c(cn1)C1(CC1)CN2c1cc(C)cc(OCC(F)(F)F)n1 [Example 333, N-(1′-(4-methyl-6-(2,2,2-trifluoroethoxy)pyridin-2-yl)-1′,2′-dihydrospiro[cyclopropane-1,3′-pyrrolo[3,2-c]pyridin]-6′-yl)acetamide trifluoroacetate] | 100 to 1000 nM | ≥ 1000 nM |  |  |
| CC(=O)Nc1cc2c(cn1)C1(CC1)CN2c1cc(C)cc(-c2ccn(C)n2)n1 [Example 256, N-(1′-(4-methyl-6-(1-methyl-1H-pyrazol-3-yl)pyridin-2-yl)-1′,2′-dihydrospiro[cyclopropane-1,3′-pyrrolo[3,2-c]pyridin]-6′-yl)acetamide trifluoroacetate] | 10 to 100 nM | ≥ 1000 nM |  |  |
| CC(=O)Nc1cc2c(cn1)C1(CC1)CN2c1cc(C)nc(-c2cnn(C3COC3)c2)n1 [Example 251, N-(1′-(6-methyl-2-(1-(oxetan-3-yl)-1H-pyrazol-4-yl)pyrimidin-4-yl)-1′,2′-dihydrospiro[cyclopropane-1,3′-pyrrolo[3,2-c]pyridin]-6′-yl)acetamide trifluoroacetate] | 10 to 100 nM | ≥ 1000 nM |  |  |
| CC(=O)Nc1cc2c(cn1)C1(CC1)CN2c1cc(C(C)(C)F)nc(C(C)(F)F)n1 [Example 398, N-(1′-(2-(1,1-difluoroethyl)-6-(2-fluoropropan-2-yl)pyrimidin-4-yl)-1′,2′-dihydrospiro[cyclopropane-1,3′-pyrrolo[3,2-c]pyridin]-6′-yl)acetamide] |  |  | ≤ 10 nM | 10 to 100 nM |
| CC(=O)Nc1cc2c(cn1)C1(CC1)CN2c1cc(C)nc(C2CCN(C(C)=O)CC2)n1 [Example 120, N-(1′-(2-(1-acetylpiperidin-4-yl)-6-methylpyrimidin-4-yl)-1′,2′-dihydrospiro[cyclopropane-1,3′-pyrrolo[3,2-c]pyridin]-6′-yl)acetamide] | 100 to 1000 nM | ≥ 1000 nM |  |  |
| CC(=O)Nc1cc2c(cn1)C1(CC1)CN2c1cc(C)cc(N2CC(F)C2)n1 [Example 195, N-(1′-(6-(3-fluoroazetidin-1-yl)-4-methylpyridin-2-yl)-1′,2′-dihydrospiro[cyclopropane-1,3′-pyrrolo[3,2-c]pyridin]-6′-yl)acetamide] | 10 to 100 nM | ≥ 1000 nM |  |  |
| CC(=O)Nc1cc2c(cn1)C1(CC1)CN2c1cc(C)nc(N2CCC(O)C2)n1 (stereo not shown) [Example 214, N-(1′-(2-(3-hydroxypyrrolidin-1-yl)-6-methylpyrimidin-4-yl)-1′,2′-dihydrospiro[cyclopropane-1,3′-pyrrolo[3,2-c]pyridin]-6′-yl)acetamide] | 100 to 1000 nM | ≥ 1000 nM |  |  |
| CCS(=O)(=O)C1CN(c2cc(C)cc(N3CC4(CC4)c4cnc(NC(C)=O)cc43)n2)C1 [Example 204, N-(1′-(6-(3-(ethylsulfonyl)azetidin-1-yl)-4-methylpyridin-2-yl)-1′,2′-dihydrospiro[cyclopropane-1,3′-pyrrolo[3,2-c]pyridin]-6′-yl)acetamide] | 100 to 1000 nM | ≥ 1000 nM |  |  |
| COc1cc(N2CCc3cnc(NC(C)=O)cc32)nc(C(C)(F)F)n1 [Example 34, N-(1-(2-(1,1-difluoroethyl)-6-methoxypyrimidin-4-yl)-2,3-dihydro-1H-pyrrolo[3,2-c]pyridin-6-yl)acetamide] | 10 to 100 nM | ≥ 1000 nM |  |  |
| CC(=O)Nc1cc2c(cn1)C1(CC1)CN2c1cc(C)nc(C2CC2C)n1 (stereo not shown) [Example 123, N-(1′-(6-methyl-2-(2-methylcyclopropyl)pyrimidin-4-yl)-1′,2′-dihydrospiro[cyclopropane-1,3′-pyrrolo[3,2-c]pyridin]-6′-yl)acetamide] | ≤ 10 nM | 100 to 1000 nM |  |  |
| CC(=O)Nc1cc2c(cn1)C1(CC1)CN2c1cc(C(C)(F)F)ncn1 [Example 280, N-(1′-(6-(1,1-difluoroethyl)pyrimidin-4-yl)-1′,2′-dihydrospiro[cyclopropane-1,3′-pyrrolo[3,2-c]pyridin]-6′-yl)acetamide] | 100 to 1000 nM | ≥ 1000 nM |  |  |
| COCC1CC(Oc2nc(C)cc(N3CC4(CC4)c4cnc(NC(C)=O)cc43)n2)C1 (stereo not shown) [Example 376, N-(1′-(2-(3-(methoxymethyl)cyclobutoxy)-6-methylpyrimidin-4-yl)-1′,2′-dihydrospiro[cyclopropane-1,3′-pyrrolo[3,2-c]pyridin]-6′-yl)acetamide] |  |  | 100 to 1000 nM | ≥ 1000 nM |
| CC(=O)Nc1cc2c(cn1)C1(CC1)CN2c1cc(C)cc(OC2CCCC2)n1 [Example 354, N-(1′-(6-(cyclopentyloxy)-4-methylpyridin-2-yl)-1′,2′-dihydrospiro[cyclopropane-1,3′-pyrrolo[3,2-c]pyridin]-6′-yl)acetamide trifluoroacetate] | 100 to 1000 nM | ≥ 1000 nM |  |  |
| CC(=O)Nc1cc2c(cn1)C1(CC1)CN2c1cc(C)cc(OC2CCOC2)n1 (stereo not shown) [Example 339, N-(1′-(4-methyl-6-((tetrahydrofuran-3-yl)oxy)pyridin-2-yl)-1′,2′-dihydrospiro[cyclopropane-1,3′-pyrrolo[3,2-c]pyridin]-6′-yl)acetamide trifluoroacetate] | 10 to 100 nM | ≥ 1000 nM |  |  |
| CC(=O)Nc1cc2c(cn1)C1(CC1)CN2c1cc(NC2CC23CC3)nc(C(C)(F)F)n1 (stereo not shown) [Example 176, N-(1′-(2-(1,1-difluoroethyl)-6-(spiro[2.2]pentan-1-ylamino)pyrimidin-4-yl)-1′,2′-dihydrospiro[cyclopropane-1,3′-pyrrolo[3,2-c]pyridin]-6′-yl)acetamide trifluoroacetate] | ≤ 10 nM | 10 to 100 nM |  |  |

Reference: patent US20260258032A1, “TYROSINE KINASE 2 INHIBITORS AND USES THEREOF” (BIOGEN MA INC., priority 2022, published 2026)
